Reference: the NIST ThermoML archive (doi:10.1016/j.jct.2017.08.028)
± gives the expanded uncertainty stated by the source.

Assay: molar heat capacity at constant pressure
Settings: 101.33 kPa, Crystal, Small (less than 1 g) adiabatic calorimetry

For `O[C@H]1[C@H](O)[C@@H](O)[C@H](O)[C@@H](O)[C@H]1O` [cis-1,2,3,5-trans-4,6-cyclohexanehexol], the “molar heat capacity at constant pressure” value (70.38 K) was 47.25 ± 0.3 J/K/mol, the “molar heat capacity at constant pressure” value (71.85 K) was 48.53 ± 0.31 J/K/mol and the “molar heat capacity at constant pressure” value (73.87 K) was 50.14 ± 0.32 J/K/mol. The “molar heat capacity at constant pressure” value (75.89 K) was 51.78 ± 0.33 J/K/mol, the “molar heat capacity at constant pressure” value (77.91 K) was 53.41 ± 0.34 J/K/mol and the “molar heat capacity at constant pressure” value (78.79 K) was 54.18 ± 0.34 J/K/mol. The “molar heat capacity at constant pressure” value (79.15 K) was 54.64 ± 0.34 J/K/mol, the “molar heat capacity at constant pressure” value (79.8 K) was 55.07 ± 0.35 J/K/mol and the “molar heat capacity at constant pressure” value (80 K) was 55.23 ± 0.25 J/K/mol. The “molar heat capacity at constant pressure” value (80.92 K) was 56.01 ± 0.35 J/K/mol, the “molar heat capacity at constant pressure” value (81.14 K) was 56.14 ± 0.35 J/K/mol and the “molar heat capacity at constant pressure” value (83.15 K) was 57.79 ± 0.36 J/K/mol. The “molar heat capacity at constant pressure” value (85.15 K) was 59.59 ± 0.37 J/K/mol, the “molar heat capacity at constant pressure” value (87.15 K) was 61.09 ± 0.38 J/K/mol and the “molar heat capacity at constant pressure” value (89.15 K) was 62.93 ± 0.39 J/K/mol. For the same compound, the “molar heat capacity at constant pressure” value (90 K) was 63.55 ± 0.32 J/K/mol, the “molar heat capacity at constant pressure” value (91.14 K) was 64.62 ± 0.41 J/K/mol and the “molar heat capacity at constant pressure” value (93.14 K) was 66.21 ± 0.42 J/K/mol. For the same compound, the “molar heat capacity at constant pressure” value (95.13 K) was 67.8 ± 0.43 J/K/mol, the “molar heat capacity at constant pressure” value (97.12 K) was 69.47 ± 0.44 J/K/mol and the “molar heat capacity at constant pressure” value (99.11 K) was 71.03 ± 0.45 J/K/mol. For the same compound, the “molar heat capacity at constant pressure” value (100 K) was 71.84 ± 0.35 J/K/mol, the “molar heat capacity at constant pressure” value (101.58 K) was 73.24 ± 0.46 J/K/mol and the “molar heat capacity at constant pressure” value (104.56 K) was 75.65 ± 0.47 J/K/mol. The “molar heat capacity at constant pressure” value (107.54 K) was 78.02 ± 0.48 J/K/mol, the “molar heat capacity at constant pressure” value (110 K) was 80.06 ± 0.38 J/K/mol and the “molar heat capacity at constant pressure” value (110.53 K) was 80.42 ± 0.49 J/K/mol. The “molar heat capacity at constant pressure” value (113.53 K) was 82.88 ± 0.5 J/K/mol, the “molar heat capacity at constant pressure” value (116.54 K) was 85.33 ± 0.51 J/K/mol and the “molar heat capacity at constant pressure” value (119.54 K) was 87.73 ± 0.52 J/K/mol. For the same compound, the “molar heat capacity at constant pressure” value (120 K) was 88.17 ± 0.41 J/K/mol, the “molar heat capacity at constant pressure” value (122.54 K) was 90.16 ± 0.54 J/K/mol and the “molar heat capacity at constant pressure” value (125.55 K) was 92.54 ± 0.55 J/K/mol. The “molar heat capacity at constant pressure” value (128.56 K) was 94.96 ± 0.56 J/K/mol, the “molar heat capacity at constant pressure” value (130 K) was 96.15 ± 0.44 J/K/mol and the “molar heat capacity at constant pressure” value (131.58 K) was 97.38 ± 0.57 J/K/mol. The “molar heat capacity at constant pressure” value (134.6 K) was 99.81 ± 0.58 J/K/mol, the “molar heat capacity at constant pressure” value (137.62 K) was 102.1 ± 0.6 J/K/mol and the “molar heat capacity at constant pressure” value (140 K) was 104 ± 0.5 J/K/mol. For the same compound, the “molar heat capacity at constant pressure” value (140.65 K) was 104.5 ± 0.6 J/K/mol, the “molar heat capacity at constant pressure” value (143.68 K) was 106.9 ± 0.6 J/K/mol and the “molar heat capacity at constant pressure” value (146.71 K) was 109.2 ± 0.6 J/K/mol. For the same compound, the “molar heat capacity at constant pressure” value (149.74 K) was 111.6 ± 0.6 J/K/mol, the “molar heat capacity at constant pressure” value (150 K) was 111.7 ± 0.5 J/K/mol and the “molar heat capacity at constant pressure” value (152.78 K) was 113.9 ± 0.7 J/K/mol. For the same compound, the “molar heat capacity at constant pressure” value (155.81 K) was 116.2 ± 0.7 J/K/mol, the “molar heat capacity at constant pressure” value (158.85 K) was 118.6 ± 0.7 J/K/mol and the “molar heat capacity at constant pressure” value (160 K) was 119.4 ± 0.5 J/K/mol. For the same compound, the “molar heat capacity at constant pressure” value (161.89 K) was 120.9 ± 0.7 J/K/mol, the “molar heat capacity at constant pressure” value (164.97 K) was 123.2 ± 0.7 J/K/mol and the “molar heat capacity at constant pressure” value (168.01 K) was 125.5 ± 0.7 J/K/mol. For the same compound, the “molar heat capacity at constant pressure” value (170 K) was 126.9 ± 0.6 J/K/mol, the “molar heat capacity at constant pressure” value (171.06 K) was 127.7 ± 0.7 J/K/mol and the “molar heat capacity at constant pressure” value (174.1 K) was 130 ± 0.7 J/K/mol. The “molar heat capacity at constant pressure” value (177.15 K) was 132.3 ± 0.7 J/K/mol, the “molar heat capacity at constant pressure” value (180 K) was 134.3 ± 0.6 J/K/mol and the “molar heat capacity at constant pressure” value (180.2 K) was 134.4 ± 0.8 J/K/mol. For the same compound, the “molar heat capacity at constant pressure” value (183.25 K) was 136.7 ± 0.8 J/K/mol, the “molar heat capacity at constant pressure” value (186.3 K) was 138.9 ± 0.8 J/K/mol and the “molar heat capacity at constant pressure” value (189.35 K) was 141.2 ± 0.8 J/K/mol. For the same compound, the “molar heat capacity at constant pressure” value (190 K) was 141.7 ± 0.6 J/K/mol, the “molar heat capacity at constant pressure” value (192.4 K) was 143.5 ± 0.8 J/K/mol and the “molar heat capacity at constant pressure” value (195.46 K) was 145.6 ± 0.8 J/K/mol. The “molar heat capacity at constant pressure” value (198.52 K) was 147.8 ± 0.8 J/K/mol, the “molar heat capacity at constant pressure” value (200 K) was 149.1 ± 0.6 J/K/mol and the “molar heat capacity at constant pressure” value (201.57 K) was 150.1 ± 0.8 J/K/mol. The “molar heat capacity at constant pressure” value (204.63 K) was 152.3 ± 0.8 J/K/mol, the “molar heat capacity at constant pressure” value (208.19 K) was 155.1 ± 0.9 J/K/mol and the “molar heat capacity at constant pressure” value (210 K) was 156.4 ± 0.7 J/K/mol. For the same compound, the “molar heat capacity at constant pressure” value (212.26 K) was 158 ± 0.9 J/K/mol, the “molar heat capacity at constant pressure” value (216.41 K) was 161.2 ± 0.9 J/K/mol and the “molar heat capacity at constant pressure” value (220 K) was 163.7 ± 0.7 J/K/mol. The “molar heat capacity at constant pressure” value (220.48 K) was 164 ± 0.9 J/K/mol, the “molar heat capacity at constant pressure” value (224.57 K) was 167.1 ± 0.9 J/K/mol and the “molar heat capacity at constant pressure” value (228.65 K) was 170.1 ± 0.9 J/K/mol. For the same compound, the “molar heat capacity at constant pressure” value (230 K) was 171.1 ± 0.7 J/K/mol, the “molar heat capacity at constant pressure” value (232.72 K) was 173.2 ± 0.9 J/K/mol and the “molar heat capacity at constant pressure” value (236.81 K) was 176.2 ± 1 J/K/mol. The “molar heat capacity at constant pressure” value (240 K) was 178.5 ± 0.8 J/K/mol, the “molar heat capacity at constant pressure” value (240.91 K) was 179.3 ± 1 J/K/mol and the “molar heat capacity at constant pressure” value (245 K) was 182.3 ± 1 J/K/mol. The “molar heat capacity at constant pressure” value (249.09 K) was 185.2 ± 1 J/K/mol, the “molar heat capacity at constant pressure” value (250 K) was 185.9 ± 0.8 J/K/mol and the “molar heat capacity at constant pressure” value (253.18 K) was 188.2 ± 1 J/K/mol. For the same compound, the “molar heat capacity at constant pressure” value (257.27 K) was 191.3 ± 1 J/K/mol, the “molar heat capacity at constant pressure” value (260 K) was 193.4 ± 0.8 J/K/mol and the “molar heat capacity at constant pressure” value (261.36 K) was 194.4 ± 1 J/K/mol. For the same compound, the “molar heat capacity at constant pressure” value (265.46 K) was 197.6 ± 1.1 J/K/mol, the “molar heat capacity at constant pressure” value (269.55 K) was 200.6 ± 1.1 J/K/mol and the “molar heat capacity at constant pressure” value (270 K) was 200.9 ± 0.9 J/K/mol. For the same compound, the “molar heat capacity at constant pressure” value (273.15 K) was 203.2 ± 0.9 J/K/mol, the “molar heat capacity at constant pressure” value (273.64 K) was 203.7 ± 1.1 J/K/mol and the “molar heat capacity at constant pressure” value (277.73 K) was 206.6 ± 1.1 J/K/mol. For the same compound, the “molar heat capacity at constant pressure” value (280 K) was 208.4 ± 0.9 J/K/mol, the “molar heat capacity at constant pressure” value (281.9 K) was 210 ± 1.1 J/K/mol and the “molar heat capacity at constant pressure” value (285.98 K) was 212.8 ± 1.1 J/K/mol. For the same compound, the “molar heat capacity at constant pressure” value (290 K) was 216 ± 0.9 J/K/mol, the “molar heat capacity at constant pressure” value (290.07 K) was 215.9 ± 1.1 J/K/mol and the “molar heat capacity at constant pressure” value (294.15 K) was 219 ± 1.2 J/K/mol. The “molar heat capacity at constant pressure” value (298.15 K) was 222.1 ± 0.9 J/K/mol, the “molar heat capacity at constant pressure” value (298.22 K) was 222 ± 1.2 J/K/mol and the “molar heat capacity at constant pressure” value (300 K) was 223.5 ± 0.9 J/K/mol. For the same compound, the “molar heat capacity at constant pressure” value (303.01 K) was 226 ± 1.2 J/K/mol, the “molar heat capacity at constant pressure” value (308.39 K) was 230 ± 1.2 J/K/mol and the “molar heat capacity at constant pressure” value (310 K) was 231.1 ± 1 J/K/mol. For the same compound, the “molar heat capacity at constant pressure” value (313.76 K) was 234 ± 1.2 J/K/mol, the “molar heat capacity at constant pressure” value (319.12 K) was 237.9 ± 1.3 J/K/mol and the “molar heat capacity at constant pressure” value (320 K) was 238.7 ± 1 J/K/mol. The “molar heat capacity at constant pressure” value (324.46 K) was 241.9 ± 1.3 J/K/mol, the “molar heat capacity at constant pressure” value (329.77 K) was 246 ± 1.3 J/K/mol and the “molar heat capacity at constant pressure” value (330 K) was 246.2 ± 1 J/K/mol. For the same compound, the “molar heat capacity at constant pressure” value (335.05 K) was 250.1 ± 1.3 J/K/mol, the “molar heat capacity at constant pressure” value (340 K) was 253.7 ± 1.1 J/K/mol and the “molar heat capacity at constant pressure” value (340.3 K) was 253.9 ± 1.3 J/K/mol.
